Results: patent US8192962B2, “Processes for detecting toxic substances” (Daikin Industries, Ltd., priority 2001, dated 2012)

Tested on: Unknown protein yeast genes
Assay: DNA chip mRNA expression in yeast, unknown protein yeast genes (Table 1)
Assay type: cell-based, Saccharomyces cerevisiae S288C
Summary of the method: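 First, S288C yeast grown in YPD at 25° C. are dosed in log phase with one toxicant (growth-inhibiting, not lethal) for 2 h. Next, total RNA is extracted and poly(A) mRNA isolated and reverse-transcribed with Cy3/Cy5-dUTP. Finally, whole-genome chip fluorescence is read relative to unexposed cells.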

## [Cl][Hg][Cl] [(3), HgCl2]
Yeast gene YKL195W, incubated two hours with chemical substance
  The level of expressed mRNA in the presence of chemical substance/The level of expressed mRNA in the absence of chemical substance: 0.4
Yeast gene YKR091W, incubated two hours with chemical substance
  The level of expressed mRNA in the presence of chemical substance/The level of expressed mRNA in the absence of chemical substance: 0.9
Yeast gene YLR054C, incubated two hours with chemical substance
  The level of expressed mRNA in the presence of chemical substance/The level of expressed mRNA in the absence of chemical substance: 0.4
Yeast gene YLR149C, incubated two hours with chemical substance
  The level of expressed mRNA in the presence of chemical substance/The level of expressed mRNA in the absence of chemical substance: 3.4
Yeast gene YLR152C, incubated two hours with chemical substance
  The level of expressed mRNA in the presence of chemical substance/The level of expressed mRNA in the absence of chemical substance: 1.1
Yeast gene YLR194C, incubated two hours with chemical substance
  The level of expressed mRNA in the presence of chemical substance/The level of expressed mRNA in the absence of chemical substance: 1.3
Yeast gene YLR324W, incubated two hours with chemical substance
  The level of expressed mRNA in the presence of chemical substance/The level of expressed mRNA in the absence of chemical substance: 0.9
Yeast gene YLR350W, incubated two hours with chemical substance
  The level of expressed mRNA in the presence of chemical substance/The level of expressed mRNA in the absence of chemical substance: 3.2
Yeast gene YLR387C, incubated two hours with chemical substance
  The level of expressed mRNA in the presence of chemical substance/The level of expressed mRNA in the absence of chemical substance: 0.8
Yeast gene YLR460C
  The level of expressed mRNA in the presence of chemical substance/The level of expressed mRNA in the absence of chemical substance: 2.0
Yeast gene YML117W, incubated two hours with chemical substance
  The level of expressed mRNA in the presence of chemical substance/The level of expressed mRNA in the absence of chemical substance: 0.9
Yeast gene YMR009W, incubated two hours with chemical substance
  The level of expressed mRNA in the presence of chemical substance/The level of expressed mRNA in the absence of chemical substance: 0.5
Yeast gene YMR067C, incubated two hours with chemical substance
  The level of expressed mRNA in the presence of chemical substance/The level of expressed mRNA in the absence of chemical substance: 1.1
Yeast gene YMR090W
  The level of expressed mRNA in the presence of chemical substance/The level of expressed mRNA in the absence of chemical substance: 2.3
Yeast gene YMR095C, incubated two hours with chemical substance
  The level of expressed mRNA in the presence of chemical substance/The level of expressed mRNA in the absence of chemical substance: 1.6
Yeast gene YMR097C, incubated two hours with chemical substance
  The level of expressed mRNA in the presence of chemical substance/The level of expressed mRNA in the absence of chemical substance: 0.7
Yeast gene YMR102C, incubated two hours with chemical substance
  The level of expressed mRNA in the presence of chemical substance/The level of expressed mRNA in the absence of chemical substance: 1.1
Yeast gene YMR107W, incubated two hours with chemical substance
  The level of expressed mRNA in the presence of chemical substance/The level of expressed mRNA in the absence of chemical substance: 1.7
Yeast gene YMR180C, incubated two hours with chemical substance
  The level of expressed mRNA in the presence of chemical substance/The level of expressed mRNA in the absence of chemical substance: 1.0
Yeast gene YMR184W, incubated two hours with chemical substance
  The level of expressed mRNA in the presence of chemical substance/The level of expressed mRNA in the absence of chemical substance: 1.0
Yeast gene YMR191W, incubated two hours with chemical substance
  The level of expressed mRNA in the presence of chemical substance/The level of expressed mRNA in the absence of chemical substance: 1.9
Yeast gene YMR295C, incubated two hours with chemical substance
  The level of expressed mRNA in the presence of chemical substance/The level of expressed mRNA in the absence of chemical substance: 1.2
Yeast gene YMR316W, incubated two hours with chemical substance
  The level of expressed mRNA in the presence of chemical substance/The level of expressed mRNA in the absence of chemical substance: 1.1
Yeast gene YNL044W, incubated two hours with chemical substance
  The level of expressed mRNA in the presence of chemical substance/The level of expressed mRNA in the absence of chemical substance: 2.3
Yeast gene YNL074C, incubated two hours with chemical substance
  The level of expressed mRNA in the presence of chemical substance/The level of expressed mRNA in the absence of chemical substance: 1.8
Yeast gene YNL092W, incubated two hours with chemical substance
  The level of expressed mRNA in the presence of chemical substance/The level of expressed mRNA in the absence of chemical substance: 2.4
Yeast gene YNL115C, incubated two hours with chemical substance
  The level of expressed mRNA in the presence of chemical substance/The level of expressed mRNA in the absence of chemical substance: 1.6
Yeast gene YNL156C, incubated two hours with chemical substance
  The level of expressed mRNA in the presence of chemical substance/The level of expressed mRNA in the absence of chemical substance: 0.9
Yeast gene YNL234W, incubated two hours with chemical substance
  The level of expressed mRNA in the presence of chemical substance/The level of expressed mRNA in the absence of chemical substance: 0.6
Yeast gene YNL281W, incubated two hours with chemical substance
  The level of expressed mRNA in the presence of chemical substance/The level of expressed mRNA in the absence of chemical substance: 2.0
Yeast gene YNL305C, incubated two hours with chemical substance
  The level of expressed mRNA in the presence of chemical substance/The level of expressed mRNA in the absence of chemical substance: 2.7
Yeast gene YNR068C, incubated two hours with chemical substance
  The level of expressed mRNA in the presence of chemical substance/The level of expressed mRNA in the absence of chemical substance: 2.3
Yeast gene YOL032W, incubated two hours with chemical substance
  The level of expressed mRNA in the presence of chemical substance/The level of expressed mRNA in the absence of chemical substance: 2.0
Yeast gene YOL036W, incubated two hours with chemical substance
  The level of expressed mRNA in the presence of chemical substance/The level of expressed mRNA in the absence of chemical substance: 1.3
Yeast gene YOL047C, incubated two hours with chemical substance
  The level of expressed mRNA in the presence of chemical substance/The level of expressed mRNA in the absence of chemical substance: 1.1
Yeast gene YOL071W, incubated two hours with chemical substance
  The level of expressed mRNA in the presence of chemical substance/The level of expressed mRNA in the absence of chemical substance: 1.7
Yeast gene YOL082W, incubated two hours with chemical substance
  The level of expressed mRNA in the presence of chemical substance/The level of expressed mRNA in the absence of chemical substance: 1.6
Yeast gene YOL083W, incubated two hours with chemical substance
  The level of expressed mRNA in the presence of chemical substance/The level of expressed mRNA in the absence of chemical substance: 1.2
Yeast gene YOL117W, incubated two hours with chemical substance
  The level of expressed mRNA in the presence of chemical substance/The level of expressed mRNA in the absence of chemical substance: 0.5
Yeast gene YOL131W, incubated two hours with chemical substance
  The level of expressed mRNA in the presence of chemical substance/The level of expressed mRNA in the absence of chemical substance: 0.6
Yeast gene YOL150C
  The level of expressed mRNA in the presence of chemical substance/The level of expressed mRNA in the absence of chemical substance: 9.9
Yeast gene YOL162W, incubated two hours with chemical substance
  The level of expressed mRNA in the presence of chemical substance/The level of expressed mRNA in the absence of chemical substance: 1.7
Yeast gene YOR019W, incubated two hours with chemical substance
  The level of expressed mRNA in the presence of chemical substance/The level of expressed mRNA in the absence of chemical substance: 0.8
Yeast gene YOR197W, incubated two hours with chemical substance
  The level of expressed mRNA in the presence of chemical substance/The level of expressed mRNA in the absence of chemical substance: 1.1
Yeast gene YPL087W, incubated two hours with chemical substance
  The level of expressed mRNA in the presence of chemical substance/The level of expressed mRNA in the absence of chemical substance: 3.0
Yeast gene YPL196W, incubated two hours with chemical substance
  The level of expressed mRNA in the presence of chemical substance/The level of expressed mRNA in the absence of chemical substance: 1.3
Yeast gene YPL206C, incubated two hours with chemical substance
  The level of expressed mRNA in the presence of chemical substance/The level of expressed mRNA in the absence of chemical substance: 1.4
Yeast gene YPL222W, incubated two hours with chemical substance
  The level of expressed mRNA in the presence of chemical substance/The level of expressed mRNA in the absence of chemical substance: 0.8
Yeast gene YPR023C, incubated two hours with chemical substance
  The level of expressed mRNA in the presence of chemical substance/The level of expressed mRNA in the absence of chemical substance: 1.2
Yeast gene YPR151C, incubated two hours with chemical substance
  The level of expressed mRNA in the presence of chemical substance/The level of expressed mRNA in the absence of chemical substance: 1.5
